# Source: US10538496B2, “Methods using HDAC11 inhibitors” (FORMA Therapeutics, Inc., priority 2016, dated 2020)
# Experiments:
# Assay type in all cases: cell-based
# A549 cells [1] = experiment: QRT-PCR assay for stem cell transcription factors; conditions: 72 hours
# Protocol: (§1) Given the effects of HDAC11 inhibition on stem-like side population cells, the effects on the expression of stem cell transcription factors was determined using QRT-PCR. A549 or H1650 cells were plated in 60 mm cell culture dishes (120,000 cells). The next day, HDAC11 inhibitors were added at various concentrations and incubated for 72 hours. For the siRNA experiments, A549 cells were plated in 60 mm cell culture dishes (120,000 cells per dish). The siRNAs (Santa Cruz Biotechnologies sc-106896 or ThermoFisher Scientific Cat#4392420) were transfected at a concentration of 100 and 150 pmoles into cells using Oligofectamine reagent (Invitrogen) as per manufacturer's protocol. A non-targeting siRNA (Ambion AM4635) was used as a control for all the transfection experiments. The cells were harvested after 72 hours post transfection. At the end of the treatments, cells were scraped, lysed and total RNA was isolated by RNeasy miniprep kit from Qiagen following the manufacturer's protocol (RNeasy mini kit Cat No. 74104). 1 μg of RNA was converted into cDNA using iScript cDNA synthesis kit (BioRad) in a 20 μl total reaction volume. Levels of mRNA were further analyzed using quantitative real time-PCR (qRT-PCR) that was performed in CFX96 Real time system using BioRad iQ SYBR Green supermix. The reaction was set with 5 μl of SYBR Green, 1 μl of 1 μM Forward primer, 1 μl of 1 μM Reverse primer, 0.5 μl of cDNA and 4.5 μl of water in a total 12 μl reaction. Data was normalized using GAPDH as an internal control and fold change was calculated by 2^−Delta-DeltaCt method. First the Delta-Ct was calculated (Delta-Ct=Ct Gene−Ct GAPDH). Next Delta-Delta-Ct was calculated (Delta-Delta-Ct=Delta-Ct treatment−Delta-Ct control). Finally fold change was calculated by 2^−Delta-DeltaCt.
# H1650 cells = experiment: QRT-PCR assay for stem cell transcription factors; conditions: 72 hours
# Protocol: as §1
# [2] = tested on: NCI-H1650 side population (SP) stem-like cells; experiment: Sphere formation assay with stem-like side population NSCLC cells; conditions: H1650 (EGFR mutation), 0.5-5.0 μM, Day 10
# Protocol: (§2) In order to investigate the role of HDAC11 in the self-renewal of stem-like cancer cells, sphere formation assays were conducted with NSCLC side population (SP) stem-like cells. A549 and NCI-H1650 cells were obtained from the ATCC. Asynchronously growing A549 or NCI-H1650 cells were washed once with phosphate buffered saline (PBS) and harvested using Accutase solution (Sigma Aldrich) and resuspended in DMEM-F12K medium (Gibo, Life Technologies) with 2% fetal bovine serum (FBS) at 1×10^6 cells/ml density. The cells were incubated with 4 μg/ml of Hoechst 33342 dye (Life Technologies) for 90 min at 37° C. in the presence or absence of 1 μM Fumitremorgin C (Sigma-Aldrich) which was used as a control sample to set the gate during sorting. The Hoechst stained cells were sorted using the BD FACSAria cell sorter. The sorted SP cells were plated in 96-well ultra-low adherent plate (Corning Inc) at the cell density of 1000 cells/100 μl/well in stem cell selective medium (DMEM:F12K supplemented with N2 supplement, 10 ng/mL epidermal growth factor (EGF) and 10 ng/ml basic fibroblast growth factor (bFGF) (Sigma-Aldrich) at 37° C. for 7-10 days. The spheres were observed and acquired using EVOS FL microscope system (Life Technologies Inc., USA). The numbers of spheres greater than or equal to 50 μm were counted. To study the effect of the HDAC11 inhibitors, the appropriate concentrations of the compounds were added to the wells on Day 0 and Day 5 and the image acquisition and analysis of the spheres were performed on Day 10. The sphere formation assays were performed twice with triplicates of each treatment in every assay.
# [3] = tested on: A549 side population (SP) stem-like cells; experiment: as above; conditions: A549 (KRAS mutation), 0.5-5.0 μM, Day 10
# Protocol: as §2
# A549 cells [4] = experiment: Cell proliferation assay with combination treatment (MTT); conditions: A549, combination with GDC-0449 (Vismodegib) or BMS-833923, 96 hours
# Protocol: (§3) Selective HDAC11 inhibitors may be useful in combination with other targeted agents, including Jak2 inhibitors and Smoothened inhibitors. The effect of combination with the Smoothened inhibitors GDC-0449 (Vismodegib) and BMS-833923 was tested in lung cancer cell lines. A549 and NCI-H2170 cells were obtained from the ATCC. H2170 is a squamous carcinoma cell line. Cell viability was assessed using MTT reagent (Thiazolyl Blue Tetrazolium Bromide) (Sigma-Aldrich). The cells were grown in 96-well plates at a density of 3000-5000 cells/well in triplicates. The HDAC11 inhibitors were added to the adherent cells at different concentrations and treatment was carried out for 96 hours. After treatments, the cells were incubated with the 1 mg/mL MTT reagent at 37° C. for 1 hour. The reaction was terminated with DMSO that solubilizes the formazan product formed. Absorbance at 590 nm was recorded in a plate reader.
# NCI-H2170 cells = experiment: as above; conditions: H2170, combination with GDC-0449 (Vismodegib) or BMS-833923, 96 hours
# Protocol: as §3
# H1650 SP cells = experiment: Tube formation assay with stem-like side population NSCLC cells; conditions: on Matrigel, overnight
# Protocol: The angiogenic tubule assay was performed with the sorted side population cells to analyze vascular mimicry. The H1650 side population cells were sorted as mentioned above and they were further grown on Matrigel (BD Biosciences) to form angiogenic tubule-like structures. 100 μl of thawed Matrigel was layered on the wells of 96-well tissue culture plates and allowed to polymerize at 37° C. for 30 min. Sorted H1650 SP cells were layered (12000 cells/100 μl of Matrigel) on the polymerized matrigel and incubated overnight at 37° C. Tubule formation was assessed under bright field using EVOS FL microscope system and images were acquired with EVOS software (Life Technologies Inc., USA). For the treatment with HDAC11 inhibitors, appropriate concentrations of the compounds were added to the cells when they were seeded on Matrigel for the tubule formation assay.
SMILES,expression of Gli1 (mRNA) (A549 cells [1]),expression of Sox2 (mRNA) (A549 cells [1]),expression of Yap1 (mRNA) (A549 cells [1]),expression of Gli1 (mRNA) (H1650 cells),expression of Sox2 (mRNA) (H1650 cells),expression of Yap1 (mRNA) (H1650 cells),growth of stem-like cancer cells (sphere formation) [2],growth of stem-like cancer cells (sphere formation) [3],"cell viability, combination with Smoothened inhibitors (A549 cells [4])","cell viability, combination with Smoothened inhibitors (NCI-H2170 cells)",tubule formation by H1650 SP cells (H1650 SP cells)
"O=C(NO)c1cccc(Nc2nc3cc(Cl)c(Cl)cc3o2)c1 [HDTK010, 3-((5,6-dichlorobenzo[d]oxazol-2-yl)amino)-N-hydroxybenzamide]",decreased expression,decreased expression,decreased expression,decreased expression,decreased expression,decreased expression,prevented growth,prevented growth,decreased cell viability,decreased cell viability,–
"O=C(NO)c1cccc2c1C[C@]1(CCN(Cc3ccc(Cl)c(C(F)(F)F)c3)C1=O)C2 [HDTK054, (S)-1′-(4-chloro-3-(trifluoromethyl)benzyl)-N-hydroxy-2′-oxo-1,3-dihydrospiro[indene-2,3′-pyrrolidine]-4-carboxamide]",decreased expression,decreased expression,decreased expression,decreased expression,decreased expression,decreased expression,prevented growth,prevented growth,decreased cell viability,decreased cell viability,inhibited tubule formation
